Reference: patent US20230310444A1, “COMPOSITIONS AND METHODS FOR TREATING DISEASES AND DISORDERS” (Curis, Inc., priority 2020, published 2023)
“Also recorded” adds a separate entry of the source. Like-named read-outs stand apart in the source and are kept apart here.

Key:
[1] = system: resistant or refractory, advanced NHL; test: Phase I dose escalation trial of Compound 1 oral monotherapy in NHL (NCT03328078); type: in vivo, human
Experimental: Seven dosing cohorts included 50 and 100 mg QD, and 50, 100, 200, 300, or 400 mg BID of daily continuous oral monotherapy in 21-Day cycles. Objective included safety and tolerance (primary), pk/pd and early efficacy (secondary), and biomarker correlations (exploratory). 31 patients with resistant or refractory, advanced NHL have been enrolled.

WM = type: in vivo, human
Experimental: The patient remained asymptomatic for over 4 years with a slow increase in m-protein and IgM during that time. By mid-2017 they started to experience increased fatigue. […] There was no evidence of CXCR4 genomic alteration. […] Several options were discussed including clinical trials and standard of care Bruton’s tyrosine kinase inhibitor (BTKi) therapy.
Baseline testing in December 2018 included a bone marrow biopsy showing 5-10% involvement by WM, m-protein of 1.66 g/dL, IgM 2,801 mg/dL, and a computed tomography scan without pathological lymphadenopathy or hepatosplenomegaly. Quantitative immunoglobulins and serum protein electrophoresis were obtained each cycle to determine response to treatment (FIG. 1).
The patient initiated treatment at the first dose level, 50 mg. […] Using a standard 3+3 design the subsequent dose level, 100 mg po BID, was cleared per protocol. Considering evidence of response without noted toxicity, the patient was a candidate to escalate to 100 mg po BID starting with cycle 7 day 1 in April 2019. […] They reported a significant improvement in their quality of life with resolution of fatigue and returned to a rigorous daily exercise program that they had been unable to perform for the last 2 years due to WM-related symptoms. In August 2019 they were noted to have an asymptomatic grade 2 creatine phosphokinase (CPK) elevation, extensive work-up and physical exam was unrevealing. […] During cycles 15 through 20, while on the 200 mg po BID dose, the patient’s IgM plateaued around 1500 mg/dL and m-protein plateaued near 0.9 g/dL. Based on evolving safety data at higher dose levels, the patient was escalated to […] starting with cycle 20 in 1/2020.

[2] = 200 mg po BID, cycles 15 through 20

Anemia, Grade 3 or Higher ([1]; 200 mg BID N=5): 0 n (%) [E]
Thrombocytopenia, All Grades ([1]; 200 mg BID N=5): 0 n (%) [E]
Thrombocytopenia, Grade 3 or Higher ([1]; 200 mg BID N=5): 0 n (%) [E]
Anemia, Grade 3 or Higher ([1]; 300 mg BID N=6): 0 n (%) [E]
Thrombocytopenia, All Grades ([1]; 300 mg BID N=6): 0 n (%) [E]
Thrombocytopenia, Grade 3 or Higher ([1]; 300 mg BID N=6): 0 n (%) [E]
Neutropenia, Grade 3 or Higher ([1]; 400 mg BID N=8): 0 n (%) [E]
pharmacokinetics, exposure versus dose ([1]; in vivo): dose-proportional increases in exposure
pharmacokinetic properties ([1]; summary): desirable pharmacokinetic properties
Compound: Cc1cc(-c2nc(C(=O)Nc3cc4oc(N5CCOCC5)nc4nc3N3CC[C@@H](O)C3)co2)ccn1 [Compound 1]
safety and tolerance overall ([1]; 50 mg QD to 400 mg BID): well tolerated; also recorded: good safety and tolerance
Tumor Reduction ([1]; DLBCL (transformed MZL), initial 50 mg qd, final 50 mg qd): 24%
Tumor Reduction ([1]; DLBCL-ABC, initial 400 mg bid, final 400 mg bid): 42%
Tumor Reduction ([1]; DLBCL, initial 50 mg bid, final 50 mg bid): 11%
Tumor Reduction ([1]; FL, initial 100 mg qd, final 50 mg qd): 49%
Tumor Reduction ([1]; LPL, initial 200 mg bid, final 300 mg bid *): 20%
Tumor Reduction ([1]; MALT/MZL, initial 400 mg bid, final 300 mg bid*): 25%
Tumor Reduction ([1]; MZL, initial 400 mg bid, final 400 mg bid): 5%
Tumor Reduction ([1]; WM, initial 50 mg bid, final 300 mg bid *): 66%
pharmacodynamic changes, cytokines ([1]; in vivo): cytokine reductions
clinical activity ([1]; summary): preliminary clinical activity
disease control ([1]; treatment duration between < 1 and 18+ months): sustained disease control
IgM (WM; 50 mg, cycle 6 day 1): 2639 mg/dL
IgM (WM; 50 mg, during first 2 cycles, baseline 2801 mg/dL): 2866 mg/dL
m-protein (WM; 50 mg, first six 21-day cycles, baseline 1.66 g/dL): 1.55 g/dL
response (WM; 100 mg po BID, cycles 7 and 8): stable disease (SD)
IgM plateau (WM; [2]): around 1500 mg/dL
m-protein plateau (WM; [2]): ~0.9 g/dL
IgM (WM; 300 g po BID from cycle 20, C22 day 1): 1241 mg/dL
m-protein (WM; after 100 mg po BID cycles 7-8, prior to 200 mg BID escalation): 1.37 g/dL
m-protein (WM; from cycle 20, C22 day 1): 0.68 g/dL
